From patent publication US20150216820A1, “QUINONE DERIVATIVES FOR USE IN THE MODULATION OF REDOX STATUS OF INDIVIDUALS” (Edison Pharmaceuticals, Inc., priority 2012, published 2015)
“Also recorded” adds a separate entry of the source.

How the values were obtained:
[1] = Plasma trough drug concentration in Leigh syndrome subjects; format: in vivo; conditions: 100 mg three times daily, eight hours post dosing
Procedure: (§1) The initial clinical dose was selected based on laboratory and human patient pharmacokinetic modeling data. Specifically, a three-compartment model for oral administration was employed that included GI absorption delay, as well as one central and one peripheral compartment. A plasma trough drug concentration was targeted 10-20 fold above the ˜10 nM in vitro EC50 value of alpha-tocotrienol quinone that protected Leigh syndrome (SURF1) primary cells against glutathione depletion-mediated apoptotic cell death. Based on serum values of alpha-tocotrienol quinone obtained in two Leigh syndrome subjects after a single 100 mg dose of alpha-tocotrienol quinone was administered, a clinical dose of 100 mg three times daily was calculated and selected as the initial dose. […] This was consistent with the in vitro target dose and was confirmed in multiple pediatric subjects with inherited mitochondrial disease (Enns, G. M., et al., Mol. Genet. Metab. 105, 91-102 (2012); Blankenberg, F., et al., Ann. Neurol. 70, S148-S148 (2011)). This dose was also safely below the preclinical no observed adverse effect level (NOAEL).

[2] = test system: Leigh syndrome (SURF1) primary cells; test: In vitro protection of patient primary cells against glutathione depletion-mediated apoptotic cell death; format: cell-based, human
Procedure: as §1

[3] = test system: intracellular (lymphocyte) glutathione; test: HPLC determination of lymphocyte glutathione forms (GSH, GS-Pro, GSSG) in treated Leigh syndrome patients; format: in vivo, human
Procedure: The determination of the different forms of GSH obtained from lymphocytes can be performed in a manner similar to the method previously reported by Pastore et al. (Clin. Chem. (Washington, D.C.) 44, 825-832 (1998)). Briefly, 30 μl of 4 M NaBH4, 20 μl of 2 mM EDTA/DTT, 10 μl of 1-octanol and 20 μl of 1.8 M HCl are placed in the derivatization vial containing 30 μl of sample. After the mixture is incubated for three min, 100 μl of 1.5 M N-ethylmorpholine buffer, pH 8.0, 400 μl of distilled water, and 20 μl of 25 mM bromobimane are added. After an additional three-min incubation, 40 μl of acetic acid are added and 20 μl (for free GSH) or 80 μl (for GSSG and GS-Pro) of this mixture are injected into the column. The thiol derivatives are quantified by HPLC (Agilent Technologies 1100 HPLC with a fluorescence detector-excitation at 390 nm and an emission at 478 nm). The analytes are separated for detection using a C18 column (Hypersil ODS; 150×4.6 mm, 3 micron) at 1.5 ml/min using an aqueous phase of aqueous 30 mM ammonium nitrate and 40 mM ammonium formate at pH 3.6 with an increasing acetonitrile gradient. HPLC determinations of the various forms of GSH are carried out on lymphocytes sonicated three times for two sec in 0.1 ml of 0.1 M potassium-phosphate buffer, pH 7.2 using a Model VC 130 Vibra Cell™ ultrasonic processor. For free GSH determinations, 100 μl of 12% sulfosalicylic acid are added to 50 μl of cells lysate, and analytes content on the acid-soluble fraction are determined. The protein pellet is dissolved in 150 μl of 0.1 N NaOH, and protein bound glutathione (GS-Pro) determined. For GSSG determination, cells are sonicated in the presence of 5 mM N-ethylmaleimide (NEM); 100 μl of 12% sulfosalicylic acid are added to 50 μl homogenates, and analytes content on the acid-soluble fraction are determined. Protein concentrations are quantified by BCA-protein assay.
(§2) Intracellular reduced glutathione (GSH) serves as the cell's principal endogenous antioxidant. Leigh syndrome and other mitochondrial diseases are associated with decreased GSH levels as the high level of oxidative stress and free oxygen radicals deplete cellular GSH reserves. In order to verify alpha-tocotrienol quinone mechanism of action and to correlate this action with clinical benefit, intracellular (lymphocyte) glutathione levels were measured in all patients. The ratio of recued-to-oxidized glutathione and reduced glutathione to total glutathione levels were calculated to assess the effect of alpha-tocotrienol quinone on repleting reduced intracellular glutathione. In addition, total serum thiol levels were measured prior to and following initiation of treatment. Plasma creatine levels—an exploratory biomarker for mitochondrial disease—was also obtained.
For lymphocytes and erythrocyte isolation from whole blood, venous blood samples were layered on the top of a discontinuous gradient consisting of 3 ml of Hystopaque®-1119 and 3 mL of Hystopaque®-1077. Gradients were centrifuged at 750 g for 40 min at 4° C. The lymphocyte layer was transferred to a 15 ml centrifuge tube, diluted to a volume of 10 ml with 0.9% NaCl and centrifuged at 750 g for 40 min. The supernatant was removed and, if necessary, the lysis of erythrocytes was performed by adding 2 ml H2O. After 90 s, 2 ml of 1.8% NaCl solution was added and cells washed four times with 0.9% NaCl. The pellet of lymphocytes was centrifuged at 750 g for 10 min and stored at −80° C. until HPLC analysis.
The determination of the different forms of GSH obtained from lymphocytes was performed, with little modification to a method previously reported (Pastore, A., et al. Clin. Chem. (Washington, D.C.) 44, 825-832 (1998)). Briefly, 30 μl of 4 M NaBH4, 20 μl of 2 mM EDTA/DTT, 10 μl of 1-octanol and 20 μl of 1.8 M HCl were placed in the derivatization vial containing 30 μl of sample. […]

[4] = test system: children with genetically-confirmed Leigh syndrome; test: Phase 2 single arm subject-controlled trial in children with Leigh syndrome: clinical outcome scales (NPMDS, GMFM, PedsQL, MD-CRS); format: in vivo, human
[5] = test system: total serum thiol levels; test: Total thiols in serum/plasma (DTNB, spectrophotometric); format: in vivo, human; conditions: three-month time point; p=0.008
Procedure: as §2
Total thiols were determined in plasma following the method reported by M.-L. Hu (Methods Enzymol. 233, 380-385 (1994)). 50 μl plasma was mixed with 1 ml of the Tris-EDTA buffer and the absorbance at 412 nm was measured. Then, 20 μl of 10 mM DTNB were added. After 15 min incubation at room temperature, the absorption at 412 nm (ε=13,600 cm^−1M^−1) was measured together with a DTNB blank.

[6] = test system: plasma creatine; test: Plasma creatine levels (exploratory biomarker for mitochondrial disease); format: in vivo, human; conditions: p=0.15
Procedure: as §2

[7] = test system: children with genetically-confirmed Leigh syndrome; test: Safety and tolerability in the Leigh syndrome trial; format: in vivo, human
Procedure: There were three serious adverse events due to intercurrent illness during the three month trial (two cases of bronchitis and one case of salmonellosis, all resolved). […] All recorded values were within the normal range for the clinical laboratories used for the analysis.
All subjects received 100 mg of alpha-tocotrienol quinone three times daily orally or via gastrostomy tube. Total treatment length was three months, with an extension phase for children who completed the initial treatment period. All adverse and serious adverse events were tracked in the trial database. In addition, all held doses due to intolerance of alpha-tocotrienol quinone or any other reason were also recorded.

[8] = LS patients after six-months treatment, n = 10
[9] = three months, 100 mg orally three times daily, p=0.01

## CC(C)=CCC/C(C)=C/CC/C(C)=C/CC[C@@](C)(O)CCC1=C(C)C(=O)C(C)=C(C)C1=O [alpha-tocotrienol quinone]
[1]
  average trough concentration: ~200 nM
[2]
  EC50: ~10 nM
[3]; [8]
  GS-Pro, lymphocytes, median: 0.57 nmol/mg proteins
  GSH, lymphocytes, median: 28.92 nmol/mg proteins
  GSSG, lymphocytes, median: 1.47 nmol/mg proteins
  Tot GSH, lymphocytes, median: 32.47 nmol/mg proteins
[3]; all patients, over treatment time
  overall glutathione charge (GSSG/GSH and GSSG/total glutathione ratios), FIG. 2: rapid normalization
[3]; decrease from baseline ratio mean 3.1+/-2.1, p=0.005
  oxidized-to-reduced glutathione levels after treatment: 0.25
[3]; in most of the patients
  time to changes in reduced glutathione levels and oxidized-to-reduced glutathione ratios: ≤ 4 weeks
[3]; in several subjects, preceding clinical response
  time to biochemical response (glutathione charge): within two weeks
[3]; increase from 8.5 at baseline, p=0.002
  reduced glutathione in isolated lymphocytes after treatment: 25.1 nmol/mg cell protein
[3]; reduction, p=0.005
  oxidized glutathione after treatment: 0.25 nmol/mg cell protein
[4]; all children, three months, regardless of age, genotype, severity
  clinical disease progression: arrest of disease progression and reversal
[4]; patient 1, before continued treatment to six months
  NPMDS score, patient 1, earlier value: 23.5
[4]; patient 1, treated for six months
  NPMDS score, patient 1, later value: 21.1
[4]; patient 2, at six months, increased from 7.6
  GMFM score, patient 2: 19.8
[4]; patient 2, before continued treatment to six months
  NPMDS score, patient 2, earlier value: 54
[4]; patient 2, following three months of treatment
  change in GMFM score, patient 2: no change
[4]; patient 2, treated for six months
  NPMDS score, patient 2, later value: 46
[4]; patient 3, before continued treatment to six months
  NPMDS score, patient 3, earlier value: 27.8
[4]; patient 3, treated for six months
  NPMDS score, patient 3, later value: 25.7
[4]; patient 7, score 97.5 prior to treatment (maximum 100)
  change in GMFM score, patient 7: did not change
[4]; prior to vs following three months of treatment
  clinical outcomes (NPMDS, neuromuscular function, health related quality of life, dystonia and spasticity), FIG. 1: significant improvement
[4]; three months
  average improvement in total NPMDS score from baseline: 25%
[4]; three months, 100 mg orally three times daily, p=0.005
  NPMDS sections 1-3 (organ system function), mean improvement: 7.1
[4]; [9]
  GMFM, mean improvement: 8.9
  NPMDS section 4 (quality of life), average improvement: 4.6
[4]; three months, 100 mg orally three times daily, p=0.03
  PedsQL Neuromuscular Module, mean improvement: 14.6
[4]; three months, secondary endpoint
  Movement Disorder-Childhood Rating Scale (MD-CRS), improvement in each child: one class
[4]; universal and durable
  time to clinical response: within eight weeks
[5]
  total serum thiol levels, mean change: 0.14
[6]
  plasma creatine, overall average decrease: 20.2 points
[7]; three month trial
  clinical chemistry laboratory parameters incl. liver and kidney function tests and coagulation parameters: no abnormalities
  other reported adverse conditions: mild sleepiness and hypotonia
[7]; three month trial, two bronchitis, one salmonellosis, all resolved
  serious adverse events due to intercurrent illness: three
[7]; three months, 100 mg three times daily
  drug related adverse events: No drug related adverse events; also recorded: not associated with any drug-induced adverse events
